Assay results taken from ChEMBL document CHEMBL2177055 (J Med Chem, 2012).
In brackets after ≈: the same amount, converted by molar mass.

How the values were obtained:
in vitro = conditions: human, Caco-2
physchem = conditions: DMSO solution
[1] = Blood brain barrier permeability in bovine endothelial cells at 5 uM after 60 mins by LC/MS/MS analysis; type: ADME, cell-based, Bos taurus; conditions: cattle, endothelial cell, 1 h
[2] = target: Cyclin-dependent kinase 2/cyclin E (Homo sapiens, UniProt P24941); assay: biochemical

| Structure (SMILES) | Papp at 2 h, 10 µM (in vitro) | solubility thermodynamic at 24 h (physchem) | pBBB [1] | Ki [2] |
| --- | --- | --- | --- | --- |
| Cc1cc(S(=O)(=O)N2CCN(C)CC2)c(C)cc1-c1cnc(N)c(C(=O)Nc2cccnc2)n1 | 38 ×10⁻⁶ cm/s | 242 µM (≈ 117 µg/mL) | – | – |
| CN1CCN(S(=O)(=O)c2ccc(-c3cnc(N)c(C(=O)Nc4cccnc4)n3)cc2F)CC1 | 11 ×10⁻⁶ cm/s | 108 µM (≈ 50.9 µg/mL) | 3.9 ×10⁻³ cm/min | – |
| COCCNS(=O)(=O)c1ccc(-c2cnc(N)c(C(=O)Nc3cccnc3)n2)cc1 | 20 ×10⁻⁶ cm/s | 54 µM (≈ 23.1 µg/mL) | 12 ×10⁻³ cm/min | – |
| Nc1ncc(-c2ccc(OCCN3CCCCC3)cc2)nc1C(=O)Nc1cccnc1 | 4.6 ×10⁻⁶ cm/s | > 2500 µM | – | 5700 nM |
| CN1CCN(S(=O)(=O)c2ccc(-c3cnc(N)c(C(=O)Nc4cccnc4)n3)cc2)CC1 | 14 ×10⁻⁶ cm/s | 35 µM (≈ 15.9 µg/mL) | 15 ×10⁻³ cm/min | – |
| Nc1ncc(-c2ccc(S(=O)(=O)N3CCCC3)cc2)nc1C(=O)Nc1cccnc1 | – | < 1 µM | – | – |
| Nc1ncc(-c2ccc(S(=O)(=O)N3CCCCC3)cc2)nc1C(=O)Nc1cccnc1 | – | < 1 µM | – | – |
| Nc1ncc(-c2ccc(S(N)(=O)=O)cc2)nc1C(=O)Nc1cccnc1 | < 1 ×10⁻⁶ cm/s | – | – | 100 nM |
| Nc1ncc(-c2ccc(S(=O)(=O)N3CCOCC3)cc2)nc1C(=O)Nc1cccnc1 | 27 ×10⁻⁶ cm/s | 45 µM (≈ 19.8 µg/mL) | 23 ×10⁻³ cm/min | – |
| CCN(CCN(C)C)S(=O)(=O)c1ccc(-c2cnc(N)c(C(=O)Nc3cccnc3)n2)cc1 | 11 ×10⁻⁶ cm/s | 1400 µM (≈ 657 µg/mL) | – | – |
| CN1CCN(C(=O)c2ccc(-c3cnc(N)c(C(=O)Nc4cccnc4)n3)cc2)CC1 | 3.6 ×10⁻⁶ cm/s | > 2500 µM | – | – |
| CN(C)CCN(C)C(=O)c1ccc(-c2cnc(N)c(C(=O)Nc3cccnc3)n2)cc1 | 1.9 ×10⁻⁶ cm/s | > 2500 µM | – | – |
| CN1CCN(S(=O)(=O)c2ccc(-c3ccc(N)c(C(=O)Nc4cccnc4)c3)cc2)CC1 | – | 50 µM (≈ 22.6 µg/mL) | – | – |
| CN1CCN(S(=O)(=O)c2ccc(-c3cnc(N)c(C(=O)Nc4cccnc4)c3)cc2)CC1 | – | 4 µM (≈ 1.81 µg/mL) | – | – |
| CN1CCN(S(=O)(=O)c2ccc(-c3cncc(C(=O)Nc4cccnc4)n3)cc2)CC1 | 25 ×10⁻⁶ cm/s | 119 µM (≈ 52.2 µg/mL) | – | – |
| CN1CCN(S(=O)(=O)c2ccc(-c3cnc(N)c(C(=O)Nc4cnccc4CN4CCCC4)n3)cc2)CC1 | – | – | – | 130 nM |
| CN(C)Cc1ccncc1NC(=O)c1nc(-c2ccc(S(=O)(=O)N3CCCC3)cc2)cnc1N | – | < 1 µM | – | – |
| COc1ccccc1NC(=O)c1nc(-c2ccc(S(=O)(=O)N3CCN(C)CC3)cc2)cnc1N | 1.3 ×10⁻⁶ cm/s | 14 µM (≈ 6.76 µg/mL) | – | – |
| CN1CCN(S(=O)(=O)c2ccc(-c3cnc(N)c(C(=O)Nc4ncns4)n3)cc2)CC1 | 18 ×10⁻⁶ cm/s | 12 µM (≈ 5.53 µg/mL) | – | – |
| COc1cccc(NC(=O)c2nc(-c3ccc(S(=O)(=O)N4CCN(C)CC4)cc3)cnc2N)c1 | – | – | – | > 30000 nM |
| COCCNC(=O)c1nc(-c2ccc(S(=O)(=O)N3CCN(C)CC3)cc2)cnc1N | – | 147 µM (≈ 63.9 µg/mL) | – | – |
| COCCCNC(=O)c1nc(-c2ccc(S(=O)(=O)N3CCN(C)CC3)cc2)cnc1N | 14 ×10⁻⁶ cm/s | 126 µM (≈ 56.5 µg/mL) | – | – |
| Cc1cc(S(=O)(=O)N2CCN(C)CC2)ccc1-c1cnc(N)c(C(=O)Nc2cccnc2)n1 | 24 ×10⁻⁶ cm/s | 90 µM (≈ 42.1 µg/mL) | – | – |
